Structures can show the parent of a compound that is named as a salt.
What follows are compounds tested against human σ1 receptor (Homo sapiens, UniProt Q99720) (assay: biochemical). Conditions: not given.
Sequence of human σ1 receptor (Q99720 whole entry): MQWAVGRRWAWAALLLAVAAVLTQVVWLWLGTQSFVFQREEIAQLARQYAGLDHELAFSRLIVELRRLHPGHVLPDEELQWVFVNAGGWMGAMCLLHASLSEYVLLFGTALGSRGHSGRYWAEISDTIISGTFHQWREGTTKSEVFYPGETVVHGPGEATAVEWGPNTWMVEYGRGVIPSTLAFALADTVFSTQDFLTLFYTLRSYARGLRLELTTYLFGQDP
Format: binding
Parameters: μ and σ1 dual binding: key to the marks not given beside the values
`Cl.O=C1COC2(CCN(Cc3ccccc3)CC2)CN1c1ccccc1` [Example 3, 9-benzyl-4-phenyl-1-oxa-4,9-diazaspiro[5.5]undecan-3-one hydrochloride] was tested, and the “μ and σ1 dual binding” value was “++”. `CC1OC2(CCN(CCc3cccc(OCCO)c3)CC2)CN(c2ccccc2F)C1=O` (centres unmarked) [Example 282, 4-(2-fluorophenyl)-9-(3-(2-hydroxyethoxy)phenethyl)-2-methyl-1-oxa-4,9-diazaspiro[5.5]undecan-3-one] gave a Ki of less than 100 nM. `CC1OC2(CCN(CCc3ccccn3)CC2)CN(c2cnccc2C(F)(F)F)C1=O.Cl` (centres unmarked) [Example 101, 2-methyl-9-(2-(pyridin-2-yl)ethyl)-4-(4-(trifluoromethyl)pyridin-3-yl)-1-oxa-4,9-diazaspiro[5.5]undecan-3-one hydrochloride] was tested, and the “μ and σ1 dual binding” value was “++”. `CC1OC2(CCN(CCc3ccccc3)CC2)CN(Cc2ccn(C)n2)C1=O` (centres unmarked) [Example 171, 2-methyl-4-((1-methyl-1H-pyrazol-3-yl)methyl)-9-phenethyl-1-oxa-4,9-diazaspiro[5.5]undecan-3-one] was tested, and the Ki was less than 500 nM. For `CC(C)C1OC2(CCN(CCc3ccccn3)CC2)CN(c2ccccc2F)C1=O` (centres unmarked) [Example 313, 4-(2-fluorophenyl)-2-isopropyl-9-(2-(pyridin-2-yl)ethyl)-1-oxa-4,9-diazaspiro[5.5]undecan-3-one hydrochloride], the Ki was less than 500 nM. In the case of `CC1OC2(CCN(CCc3ccccc3)CC2)CN(Cc2nccs2)C1=O` (centres unmarked) [Example 160, 2-methyl-9-phenethyl-4-(thiazol-2-ylmethyl)-1-oxa-4,9-diazaspiro[5.5]undecan-3-one hydrochloride], the Ki is reported as less than 100 nM. In the case of `O=C1C(CC2CCOCC2)OC2(CCN(CCc3ccccc3)CC2)CN1c1ccccc1F` (centres unmarked) [Example 311, 4-(2-fluorophenyl)-9-phenethyl-2-((tetrahydro-2H-pyran-4-yl)methyl)-1-oxa-4,9-diazaspiro[5.5]undecan-3-one hydrochloride], the Ki is reported as less than 500 nM. For `O=C1COC2(CCN(CCc3ccc(O)cc3)CC2)CN1c1ccccc1` [Example 290, 9-(4-hydroxyphenethyl)-4-phenyl-1-oxa-4,9-diazaspiro[5.5]undecan-3-one], the “μ and σ1 dual binding” value was “++”. `COc1cccc(CCN2CCC3(CC2)CN(c2ccccc2)C(=O)C(C)O3)n1` (centres unmarked) [Example 102, 9-(2-(6-methoxypyridin-2-yl)ethyl)-2-methyl-4-phenyl-1-oxa-4,9-diazaspiro[5.5]undecan-3-one hydrochloride] showed a Ki of less than 500 nM.

Same assay, conditions: combined class from Ki-σ1 (human σ1 receptor, A1) and Ki-μ (human μ-opioid receptor, A2) radioligand binding
With `CC1OC2(CCN(CCn3cccn3)CC2)CN(c2ccccc2)C1=O` (centres unmarked) [Example 56] the “μ and σ1 dual binding” value was “++”.

Same assay, conditions: read-out: μ and σ1 dual binding
`CS(=O)(=O)Nc1cccc(CN2CC3(CCN(CCc4ccccc4)CC3)OCC2=O)c1` [Example 259, N-(3-((3-oxo-9-phenethyl-1-oxa-4,9-diazaspiro[5.5]undecan-4-yl)methyl)phenyl)methanesulfonamide hydrochloride] gave a Ki greater than 500 nM. In the case of `CC1CN(Cc2ccccc2)CC2(CCN(CCc3ccccc3)CC2)O1` (centres unmarked) [Example 335, 4-benzyl-2-methyl-9-phenethyl-1-oxa-4,9-diazaspiro[5.5]undecane dihydrochloride], the Ki is reported as less than 100 nM. With `COC(=O)CC1OC2(CCN(CCc3ccccc3)CC2)CN(c2ccccc2)C1=O` (centres unmarked) [Example 14, methyl 2-(3-oxo-9-phenethyl-4-phenyl-1-oxa-4,9-diazaspiro[5.5]undecan-2-yl)acetate hydrochloride] the Ki was less than 100 nM. `CC1OC2(CCN(CCc3cccc(F)c3)CC2)CN(c2ccccc2)C1=O` (centres unmarked) [Example 54, 9-(3-fluorophenethyl)-2-methyl-4-phenyl-1-oxa-4,9-diazaspiro[5.5]undecan-3-one hydrochloride] was tested, and the Ki was less than 100 nM. Work on `CC1OC2(CCN(CCc3ccc([N+](=O)[O-])cn3)CC2)CN(c2ccccc2F)C1=O` (centres unmarked) [Example 24, 4-(2-fluorophenyl)-2-methyl-9-(2-(5-nitropyridin-2-yl)ethyl)-1-oxa-4,9-diazaspiro[5.5]undecan-3-one] yielded a Ki greater than 500 nM. For `CC1OC2(CCN(CC(=O)N3CCCCC3)CC2)CN(c2ccccc2)C1=O` (centres unmarked) [Example 129, 2-methyl-9-(2-oxo-2-(piperidin-1-yl)ethyl)-4-phenyl-1-oxa-4,9-diazaspiro[5.5]undecan-3-one], the Ki was greater than 500 nM. For `COCCCN1CC2(CCN(CCc3ccccc3)CC2)OC2(CC2)C1=O` [Example 180, 12-(3-methoxypropyl)-8-phenethyl-4-oxa-8,12-diazadispiro[2.1.5.3]tridecan-13-one hydrochloride], the Ki was less than 500 nM. With `C[C@H]1OC2(CCN(CCc3ccccc3)CC2)CN(c2ccccc2)C1=O` [Example 10a, (R)-2-methyl-9-phenethyl-4-phenyl-1-oxa-4,9-diazaspiro[5.5]undecan-3-one] the Ki was less than 100 nM. In the case of `CC1OC2(CCN(CCc3ccc(C(F)(F)F)nc3)CC2)CN(c2ccccc2F)C1=O` (centres unmarked) [Example 91, 4-(2-fluorophenyl)-2-methyl-9-(2-(6-(trifluoromethyl)pyridin-3-yl)ethyl)-1-oxa-4,9-diazaspiro[5.5]undecan-3-one dihydrochloride], the Ki is reported as less than 500 nM. `CC(C)C1OC2(CCN(CCc3csc(NC(=O)OC(C)(C)C)n3)CC2)CN(c2ccccc2F)C1=O` (centres unmarked) [Example 117, tert-butyl (4-(2-(4-(2-fluorophenyl)-2-isopropyl-3-oxo-1-oxa-4,9-diazaspiro[5.5]undecan-9-yl)ethyl)thiazol-2-yl)carbamate] was tested, and the Ki was greater than 500 nM. For `CC1CN(Cc2ccccn2)CC2(CCN(CCc3ccccc3)CC2)O1` (centres unmarked) [Example 330, 2-methyl-9-phenethyl-4-(pyridin-2-ylmethyl)-1-oxa-4,9-diazaspiro[5.5]undecane hydrochloride], the Ki was less than 100 nM. `COC(=O)CCN1CC2(CCN(CCc3ccccc3)CC2)OC2(CC2)C1=O` [Example 186, methyl 3-(13-oxo-8-phenethyl-4-oxa-8,12-diazadispiro[2.1.5.3]tridecan-12-yl)propanoate] was tested, and the Ki was greater than 500 nM. `CC1OC2(CCN(CCc3ccccc3)CC2)CN(c2cccnc2C(F)(F)F)C1=O` (centres unmarked) [Example 215, 2-methyl-9-phenethyl-4-(2-(trifluoromethyl)pyridin-3-yl)-1-oxa-4,9-diazaspiro[5.5]undecan-3-one hydrochloride] gave a Ki of less than 500 nM. Compound `CC(C)OCCN1CCC2(CC1)CN(c1ccccc1)C(=O)C(C)O2` (centres unmarked) [Example 122, 9-(2-isopropoxyethyl)-2-methyl-4-phenyl-1-oxa-4,9-diazaspiro[5.5]undecan-3-one] has a Ki greater than 500 nM. `Nc1cccc(CCN2CCC3(CC2)CN(Cc2ccccc2)CCO3)c1` [Example 338, 3-(2-(4-benzyl-1-oxa-4,9-diazaspiro[5.5]undecan-9-yl)ethyl)aniline] gave a Ki greater than 500 nM. `O=C1COC2(CCN(CCc3ccccc3)CC2)CN1Cc1ccccc1` [Example 153, 4-benzyl-9-phenethyl-1-oxa-4,9-diazaspiro[5.5]undecan-3-one hydrochloride] gave a Ki of less than 100 nM. `CC1OC2(CCN(CCc3ccccc3)CC2)CN(Cc2ccccc2F)C1=O` (centres unmarked) [Example 154, 4-(2-fluorobenzyl)-2-methyl-9-phenethyl-1-oxa-4,9-diazaspiro[5.5]undecan-3-one hydrochloride] showed a Ki of less than 100 nM. Compound `O=C1COC2(CCN(CCc3ccccc3)CC2)CN1Cc1cscn1` [Example 167, 9-phenethyl-4-(thiazol-4-ylmethyl)-1-oxa-4,9-diazaspiro[5.5]undecan-3-one hydrochloride] has a Ki of less than 100 nM. Work on `O=C1N(c2ncccc2C(F)(F)F)CC2(CCN(CCc3ccccc3F)CC2)OC12CC2` [Example 220, 8-(2-fluorophenethyl)-12-(3-(trifluoromethyl)pyridin-2-yl)-4-oxa-8,12-diazadispiro[2.1.5.3]tridecan-13-one hydrochloride] yielded a Ki of less than 500 nM. Compound `CC(=O)Nc1cccc(CCN2CCC3(CC2)CN(c2ccccc2)C(=O)[C@H](C)O3)c1` [Example 244a, (S)-N-(3-(2-(2-methyl-3-oxo-4-phenyl-1-oxa-4,9-diazaspiro[5.5]undecan-9-yl)ethyl)phenyl)acetamide hydrochloride] has a Ki of less than 500 nM. `CC1OC2(CCN(CCc3ccccc3)CC2)CN(c2ncccc2F)C1=O` (centres unmarked) [Example 208, 4-(3-fluoropyridin-2-yl)-2-methyl-9-phenethyl-1-oxa-4,9-diazaspiro[5.5]undecan-3-one] was tested, and the Ki was less than 100 nM. `CC1OC2(CCN(CCc3cccc(O)c3)CC2)CN(c2ccccc2F)C1=O` (centres unmarked) [Example 298, 4-(2-fluorophenyl)-9-(3-hydroxyphenethyl)-2-methyl-1-oxa-4,9-diazaspiro[5.5]undecan-3-one] was tested, and the Ki was less than 100 nM. Work on `CC(=O)Nc1cccc(CCN2CCC3(CC2)CN(Cc2ccc(C(F)(F)F)cn2)C(=O)CO3)c1` [Example 251, N-(3-(2-(3-oxo-4-((5-(trifluoromethyl)pyridin-2-yl)methyl)-1-oxa-4,9-diazaspiro[5.5]undecan-9-yl)ethyl)phenyl)acetamide hydrochloride] yielded a Ki of less than 500 nM. Work on `CC1OC2(CCN(CCc3ccccc3F)CC2)CN(c2ncccc2C(F)(F)F)C1=O` (centres unmarked) [Example 221, 9-(2-fluorophenethyl)-2-methyl-4-(3-(trifluoromethyl)pyridin-2-yl)-1-oxa-4,9-diazaspiro[5.5]undecan-3-one] yielded a Ki of less than 500 nM. `CC1OC2(CCN(CCc3ccccc3)CC2)CN(c2cccc(C(F)(F)F)n2)C1=O` (centres unmarked) [Example 207, 2-methyl-9-phenethyl-4-(6-(trifluoromethyl)pyridin-2-yl)-1-oxa-4,9-diazaspiro[5.5]undecan-3-one] gave a Ki of less than 100 nM. `COc1cccc(N2CC3(CCN(CCc4ccccc4)CC3)OC(C)C2=O)c1` (centres unmarked) [Example 15, 4-(3-methoxyphenyl)-2-methyl-9-phenethyl-1-oxa-4,9-diazaspiro[5.5]undecan-3-one hydrochloride] showed a Ki of less than 500 nM. With `CC1OC2(CCN(CCc3cccnc3[N+](=O)[O-])CC2)CN(c2cnccc2C(F)(F)F)C1=O` (centres unmarked) [Example 43, 2-methyl-9-(2-(2-nitropyridin-3-yl)ethyl)-4-(4-(trifluoromethyl)pyridin-3-yl)-1-oxa-4,9-diazasprio[5.5]undecan-3-one] the Ki was greater than 500 nM. `CC1OC2(CCN(CCc3ccccc3)CC2)CN(c2cnccc2C(F)(F)F)C1=O` (centres unmarked) [Example 214, 2-methyl-9-phenethyl-4-(4-(trifluoromethyl)pyridin-3-yl)-1-oxa-4,9-diazaspiro[5.5]undecan-3-one hydrochloride] gave a Ki of less than 100 nM.

Reference: US10703765B2 (priority 2014, dated 2020)
